Measurements taken from US11118200B2, “Method for preparing amines from aldehydes and ketones by biocatalysis” (COMMISSARIAT A L'ENERGIE ATOMIQUE ET AUX ENERGIES …, priority 2017, dated 2021).
Marks after values point to notes of the source that are not given here. Each block holds one compound with its values, some of them ahead of it.

Legend:
enzyme of SEQ ID NO:1 [1] = experiment: Screening of carbonyl-containing compounds with ammonia as amine source (specific activity, absorbance at 340 nm); type: biochemical, Mycobacterium smegmatis; details: for Specific activity, SEQ ID NO: 1: 10 mM of carbonyl-containing compound, ammonia as amine source
Experimental: (§1) All the reactions were conducted at 25° C. in spectrophotometric cell (10 mm light path). To a mixture of ammonium formate buffer (2 M NH4HCO2/NH4OH, pH 9.5), NADH or NADPH (0.2 mM) and an appropriate amount of purified enzyme was added.

enzyme of SEQ ID NO:3 [2] = experiment: as above; type: biochemical, Microbacterium sp. MA1; details: for Specific activity, SEQ ID NO: 3: 10 mM of carbonyl-containing compound, ammonia as amine source
Experimental: as §1

enzyme of SEQ ID NO:4 [3] = experiment: Screening of carbonyl-containing compounds with methylamine as amine source; type: biochemical, Aminomonas paucivorans DSM 12260; details: preliminary
Experimental: (§2) All the reactions were conducted at 25° C. in spectrophotometric cell (10 mm light path). To a mixture of TRIS.HCl buffer (50 mM, pH 9.5), NADH and NADPH (0.1 mM each), methylamine (500 mM) and an appropriate amount of purified enzyme was added. Carbonyl-containing compound (5 mM) is then added to initiate the reaction (reaction final volume 100 μL). The initial slope measured at 340 nm determined the specific activity of the enzyme according to Beer-Lambert's law and the molar absorptivity of β-NADH (ϵ=6298 M^−1 cm^−1).

enzyme of SEQ ID NO:5 [4] = experiment: as above; type: biochemical, Mycobacterium vaccae ATCC 25954; details: preliminary
Experimental: as §2

enzyme of SEQ ID NO:3 [5] = experiment: as above; type: biochemical, Microbacterium sp. MA1; details: preliminary
Experimental: as §2

enzyme of SEQ ID NO:2 [6] = experiment: as above; type: biochemical, Cystobacter fuscus DSM 2262; details: preliminary
Experimental: as §2

enzyme of SEQ ID NO:2 [7] = experiment: Screening of carbonyl-containing compounds with ammonia as amine source (specific activity, absorbance at 340 nm); type: biochemical, Cystobacter fuscus DSM 2262; details: for Specific activity, SEQ ID NO: 2: 10 mM of carbonyl-containing compound, ammonia as amine source
Experimental: as §1

enzyme of SEQ ID NO:1 [8] = experiment: Screening of carbonyl-containing compounds with methylamine as amine source; type: biochemical, Mycobacterium smegmatis; details: preliminary
Experimental: as §2

enzyme of SEQ ID NO:4 [9] = experiment: Screening of carbonyl-containing compounds with ammonia as amine source (specific activity, absorbance at 340 nm); type: biochemical, Aminomonas paucivorans DSM 12260; parameters: key to Detection of the expected compound, SEQ ID NO: 4: d: detected activity; nd: not detected activity; details: for Detection of the expected compound, SEQ ID NO: 4: pH 9.5, 25° C.
Experimental: as §2, with “of ammonium formate” for “of TRIS.HCl”, “buffer (2 M NH4HCO2/NH4OH,” for “buffer (50 mM,”, “NADH or” for “NADH and”, “NADPH (0.2” for “NADPH (0.1 mM each), methylamine (500”, “(5 or 10” for “(5”

enzyme of SEQ ID NO:5 [10] = experiment: as above; type: biochemical, Mycobacterium vaccae ATCC 25954; details: mixture NADH/NADPH (0.1 mM each), 5 mM of carbonyl-containing compound
Experimental: as §2, with “To a mixture of TRIS.HCl buffer (50 mM, pH 9.5), NADH and NADPH (0.1 mM each), methylamine (500 mM) and an appropriate amount of purified enzyme was added.” left out, “(5 or 10” for “(5”

[11] = 0.2 mM NADPH (best of NADH/NADPH)
[12] = methylamine (500 mM) as amine source, NADH/NADPH (0.1 mM each), carbonyl-containing compound 5 mM
[13] = 0.2 mM NADH (best of NADH/NADPH)
[14] = 0.2 mM NADH (best of NADH/NADPH), listed as drawing 150

Structure (SMILES): CC(C)C=O [2-methylpropanal]
- Specific activity, SEQ ID NO: 4 (enzyme of SEQ ID NO:4 [3]; [12]): 30.3 mU.mg-^1
- activity of enzyme of SEQ ID NO:4 on the substrate with methylamine (in words) (enzyme of SEQ ID NO:4 [3]; methylamine as amine source): active
- Specific activity, SEQ ID NO: 5 (enzyme of SEQ ID NO:5 [4]; [12]): 262.6 mU.mg-^1
- activity of enzyme of SEQ ID NO:5 on the substrate with methylamine (in words) (enzyme of SEQ ID NO:5 [4]; methylamine as amine source): active
- Specific activity, SEQ ID NO: 1 (enzyme of SEQ ID NO:1 [1]; [13]): 556.5 mU.mg^-1
- Specific activity, SEQ ID NO: 1 (enzyme of SEQ ID NO:1 [1]; [14]): 556.5^a mU.mg^-1
- Specific activity, SEQ ID NO: 3 (enzyme of SEQ ID NO:3 [2]; [13]): 541.0 mU.mg^-1
- Specific activity, SEQ ID NO: 3 (enzyme of SEQ ID NO:3 [2]; [14]): 541.0^a mU.mg^-1
- Specific activity, SEQ ID NO: 3 (enzyme of SEQ ID NO:3 [5]; [12]): 851.3 mU.mg-^1
- activity of enzyme of SEQ ID NO:3 on the substrate with methylamine (in words) (enzyme of SEQ ID NO:3 [5]; methylamine as amine source): active
- Specific activity, SEQ ID NO: 2 (enzyme of SEQ ID NO:2 [6]; [12]): 150.2 mU.mg-^1
- activity of enzyme of SEQ ID NO:2 on the substrate with methylamine (in words) (enzyme of SEQ ID NO:2 [6]; methylamine as amine source): active
- Specific activity, SEQ ID NO: 2 (enzyme of SEQ ID NO:2 [7]; [13]): 119.2^a mU.mg^-1
- Specific activity, SEQ ID NO: 1 (enzyme of SEQ ID NO:1 [8]; [12]): 144.5 mU.mg-^1
- activity of enzyme of SEQ ID NO:1 on the substrate with methylamine (in words) (enzyme of SEQ ID NO:1 [8]; methylamine as amine source): active

Structure (SMILES): CC1CC(=O)CC(C)C1 (stereo not drawn)
- Specific activity, SEQ ID NO: 1 (enzyme of SEQ ID NO:1 [1]; [11]): 9.7^b mU.mg^-1
- Specific activity, SEQ ID NO: 3 (enzyme of SEQ ID NO:3 [2]; [11]): 61.6^b mU.mg^-1

Structure (SMILES): O=Cc1ccccc1
- Detection of the expected compound, SEQ ID NO: 4 (enzyme of SEQ ID NO:4 [9]; ammonia as amine source): d

Structure (SMILES): CCCC(C)=O [drawing 142]
- Specific activity, SEQ ID NO: 1 (enzyme of SEQ ID NO:1 [1]; [11]): 9.0^b mU.mg^-1
- Specific activity, SEQ ID NO: 3 (enzyme of SEQ ID NO:3 [2]; [11]): 51.2^b mU.mg^-1
- Specific activity, SEQ ID NO: 2 (enzyme of SEQ ID NO:2 [7]; [11]): 6.4^b mU.mg^-1

Structure (SMILES): CCCCC=O [drawing 122]
- Specific activity, SEQ ID NO: 4 (enzyme of SEQ ID NO:4 [9]; 0.2 mM NADH (best of NADH/NADPH), 10 mM of carbonyl-containing compound, ammonia as amine source): 89.1^a mU.mg^-1
- Detection of the expected compound, SEQ ID NO: 4 (enzyme of SEQ ID NO:4 [9]; ammonia as amine source): d

Structure (SMILES): O=C1CCCC1
- Specific activity, SEQ ID NO: 1 (enzyme of SEQ ID NO:1 [1]; [11]): 5.6^b mU.mg^-1
- Specific activity, SEQ ID NO: 3 (enzyme of SEQ ID NO:3 [2]; [11]): 60.6^b mU.mg^-1
- Specific activity, SEQ ID NO: 2 (enzyme of SEQ ID NO:2 [7]; [11]): 24.2^b mU.mg^-1

Structure (SMILES): CCCC(C)=O [drawing 170]
- Specific activity, SEQ ID NO: 5 (enzyme of SEQ ID NO:5 [10]): 6.1 mU.mg^-1

Structure (SMILES): CC1CCC(=O)C1 (stereo not drawn)
- Specific activity, SEQ ID NO: 1 (enzyme of SEQ ID NO:1 [1]; [11]): 7.7^b mU.mg^-1
- Specific activity, SEQ ID NO: 3 (enzyme of SEQ ID NO:3 [2]; [11]): 23.3^b mU.mg^-1
- Specific activity, SEQ ID NO: 2 (enzyme of SEQ ID NO:2 [7]; [11]): 13.9^b mU.mg^-1

More lines, now with the values ahead:

- Specific activity, SEQ ID NO: 1 (enzyme of SEQ ID NO:1 [1]; [11]): 6.8^b mU.mg^-1
- Specific activity, SEQ ID NO: 3 (enzyme of SEQ ID NO:3 [2]; [11]): 28.1^b mU.mg^-1
Structure (SMILES): CCCC(=O)CC

- Specific activity, SEQ ID NO: 1 (enzyme of SEQ ID NO:1 [1]; [11]): 7.4^b mU.mg^-1
- Specific activity, SEQ ID NO: 3 (enzyme of SEQ ID NO:3 [2]; [11]): 37.1^b mU.mg^-1
- Specific activity, SEQ ID NO: 2 (enzyme of SEQ ID NO:2 [7]; [13]): 2.5^a mU.mg^-1
Structure (SMILES): O=C1C=CCCC1

- activity of enzyme of SEQ ID NO:4 towards the substrate (in words) (enzyme of SEQ ID NO:4 [9]; reductive amination): inactive
- activity of enzyme of SEQ ID NO:1 towards the substrate (in words) (enzyme of SEQ ID NO:1 [1]; reductive amination): inactive
- activity of enzyme of SEQ ID NO:3 towards the substrate (in words) (enzyme of SEQ ID NO:3 [2]; reductive amination): inactive
- activity of enzyme of SEQ ID NO:2 towards the substrate (in words) (enzyme of SEQ ID NO:2 [7]; reductive amination): inactive
Structure (SMILES): CC(=O)CCC(=O)O [4-oxopentanoic acid]

- Specific activity, SEQ ID NO: 1 (enzyme of SEQ ID NO:1 [1]; [11]): 177.7^b mU.mg^-1
- Specific activity, SEQ ID NO: 3 (enzyme of SEQ ID NO:3 [2]; [11]): 324.4^b mU.mg^-1
- Specific activity, SEQ ID NO: 2 (enzyme of SEQ ID NO:2 [7]; [11]): 42.4^b mU.mg^-1
Structure (SMILES): CC(=O)C(C)O (stereo not drawn)

- Specific activity, SEQ ID NO: 1 (enzyme of SEQ ID NO:1 [1]; [11]): 75.2^b mU.mg^-1
- Specific activity, SEQ ID NO: 3 (enzyme of SEQ ID NO:3 [2]; [13]): 159.4^a mU.mg^-1
- Specific activity, SEQ ID NO: 2 (enzyme of SEQ ID NO:2 [7]; [13]): 231.9^a mU.mg^-1
Structure (SMILES): CCC(C)C=O (stereo not drawn) [drawing 148]

- Specific activity, SEQ ID NO: 1 (enzyme of SEQ ID NO:1 [1]; [11]): 125.8^b mU.mg^-1
- Specific activity, SEQ ID NO: 3 (enzyme of SEQ ID NO:3 [2]; [11]): 245.6^b mU.mg^-1
- Specific activity, SEQ ID NO: 2 (enzyme of SEQ ID NO:2 [7]; [13]): 68.2^a mU.mg^-1
Structure (SMILES): CC(=O)C(C)C
